Values joined by “and” are separate entries in the source; they are usually repeats but may differ in a detail not shown here. Equal values may be shown once. Toxic doses and inconclusive results are not listed.
System: BALB/cJ mice, ADJ-PC-6 ip tumor, median survival T/C
Experiment: NCI In Vivo Anticancer Drug Screen. Data for tumor model ADJ-PC-6 (intraperitoneal) in BALB/cJ mice
Settings: endpoint: median survival time, higher = longer survival
Protocol: The antitumor activity of compounds was measured in mice bearing transplantable tumors. Survival or tumor size were measured and the results are expressed as the measurement made in the treated group (T) divided by the measurement made in the vehicle treated control group (C). The tumor model used in this assay is ADJ-PC-6 (intraperitoneal) in BALB/cJ mice

[1] = dose: 50.0 mg/kg/injection, schedule: Q01DX009 (ip), vehicle: saline with Tween-80
[2] = dose: 100.0 mg/kg/injection, schedule: Q01DX009 (ip), vehicle: saline with Tween-80
[3] = dose: 200.0 mg/kg/injection, schedule: Q01DX009 (ip), vehicle: saline with Tween-80

For CN(C)/N=N/c1nc[nH]c1C(N)=O, the T/C [1] was 99 % of control, the T/C (dose: 50.0 mg/kg/injection, schedule: Q04DX003 (ip), vehicle: saline with Tween-80) was 335 % of control and 471 % of control and the T/C [2] was 110 % of control. For the same molecule, the T/C [3] was 105 % of control, the T/C (dose: 200.0 mg/kg/injection, schedule: Q04DX003 (ip), vehicle: Klucel (hydroxypropylcellulose) (HPC)) was 216 % of control and 275 % of control and the T/C (dose: 200.0 mg/kg/injection, schedule: Q04DX003 (ip), vehicle: saline with Tween-80) was 335 % of control and 471 % of control. The T/C (dose: 400.0 mg/kg/injection, schedule: Q04DX003 (ip), vehicle: Klucel (hydroxypropylcellulose) (HPC)) was 275 % of control and 369 % of control and the T/C (dose: 400.0 mg/kg/injection, schedule: Q04DX003 (ip), vehicle: saline with Tween-80) was 227 % of control and 335 % of control and 471 % of control.
For CC1=C(C)C(=O)O[C@@H]([C@](C)(O)[C@]2(O)CC[C@@]3(O)[C@@H]4C[C@H]5O[C@]56[C@@H](O)C=CC(=O)[C@]6(C)[C@H]4CC[C@]23C)C1, the T/C (dose: 1.0 mg/kg/injection, schedule: Q01DX009 (ip), vehicle: saline + alcohol) was 111 % of control, the T/C (dose: 1.0 mg/kg/injection, schedule: Q01DX009 (ip), vehicle: saline with Tween-80) was 104 % of control and the T/C (dose: 2.0 mg/kg/injection, schedule: Q01DX009 (ip), vehicle: saline + alcohol) was 96 % of control. For the same molecule, the T/C (dose: 2.0 mg/kg/injection, schedule: Q01DX009 (ip), vehicle: saline with Tween-80) was 107 % of control, the T/C (dose: 4.0 mg/kg/injection, schedule: Q01DX009 (ip), vehicle: saline + alcohol) was 98 % of control and the T/C (dose: 4.0 mg/kg/injection, schedule: Q01DX009 (ip), vehicle: saline with Tween-80) was 97 % of control. For the same molecule, the T/C (dose: 8.0 mg/kg/injection, schedule: Q01DX009 (ip), vehicle: saline + alcohol) was 114 % of control and the T/C (dose: 8.0 mg/kg/injection, schedule: Q01DX009 (ip), vehicle: saline with Tween-80) was 106 % of control.
Nc1nc(F)nc2c1ncn2C1OC(COP(=O)(O)O)C(O)C1O (stereo not drawn) was tested, and the T/C (dose: 25.0 mg/kg/injection, schedule: Q01DX009 (ip), vehicle: saline) was 90 % of control, the T/C (dose: 50.0 mg/kg/injection, schedule: Q01DX009 (ip), vehicle: saline) was 91 % of control and the T/C (dose: 100.0 mg/kg/injection, schedule: Q01DX009 (ip), vehicle: saline) was 104 % of control.
For COc1c(O)c2c(c3cc(C(=O)N4CCc5c4c(O)c(OC)c4[nH]c(C(=O)N6CC7CC78C6=CC(=O)c6[nH]cc(C)c68)cc54)[nH]c13)CCN2C(N)=O (stereo not drawn), the T/C (dose: 25.0 micrograms/kg/injection, schedule: Q04DX003 (ip), vehicle: DMSO) was 95 % of control, the T/C (dose: 50.0 micrograms/kg/injection, schedule: Q04DX003 (ip), vehicle: DMSO) was 96 % of control and the T/C (dose: 100.0 micrograms/kg/injection, schedule: Q04DX003 (ip), vehicle: DMSO) was 103 % of control. The T/C (dose: 200.0 micrograms/kg/injection, schedule: Q04DX003 (ip), vehicle: DMSO) was 100 % of control.
CN1N=C(N)c2cn(C3OC(COP(=O)(O)O)C(O)C3O)c3ncnc1c23 (stereo not drawn) was tested, and the T/C (dose: 12.5 mg/kg/injection, schedule: Q04DX003 (ip), vehicle: saline) was 222 % of control, the T/C (dose: 12.5 mg/kg/injection, schedule: Q04DX003 (ip), vehicle: water) was 471 % of control and the T/C (dose: 25.0 mg/kg/injection, schedule: Q04DX003 (ip), vehicle: saline) was 222 % of control. The T/C (dose: 25.0 mg/kg/injection, schedule: Q04DX003 (ip), vehicle: water) was 471 % of control, the T/C (dose: 50.0 mg/kg/injection, schedule: Q04DX003 (ip), vehicle: saline) was 222 % of control and 275 % of control and 369 % of control and the T/C (dose: 50.0 mg/kg/injection, schedule: Q04DX003 (ip), vehicle: water) was 471 % of control. The T/C (dose: 100.0 mg/kg/injection, schedule: Q04DX003 (ip), vehicle: saline) was 222 % of control and 275 % of control and 369 % of control, the T/C (dose: 100.0 mg/kg/injection, schedule: Q04DX003 (ip), vehicle: water) was 471 % of control and the T/C (dose: 200.0 mg/kg/injection, schedule: Q04DX003 (ip), vehicle: saline) was 275 % of control and 369 % of control.
For CS(=O)(=O)c1ncc(Br)cn1, the T/C (dose: 25.0 mg/kg/injection, schedule: Q01DX009 (ip), vehicle: saline with Tween-80) was 105 % of control, the T/C [1] was 105 % of control and the T/C [2] was 118 % of control. The T/C [3] was 100 % of control.
In the case of CCN(CC)CCOC(=O)c1ccc(NCN2C(=O)CCC2=O)cc1, the T/C (dose: 10.0 mg/kg/injection, schedule: Q01DX009 (ip), vehicle: water) is reported as 110 % of control, the T/C (dose: 20.0 mg/kg/injection, schedule: Q01DX009 (ip), vehicle: water) is reported as 96 % of control and the T/C (dose: 40.0 mg/kg/injection, schedule: Q01DX009 (ip), vehicle: water) is reported as 98 % of control. The T/C (dose: 80.0 mg/kg/injection, schedule: Q01DX009 (ip), vehicle: water) was 105 % of control and the T/C (dose: 160.0 mg/kg/injection, schedule: Q01DX009 (ip), vehicle: water) was 92 % of control.
With O=c1[nH]cc(F)c(=O)[nH]1 the T/C (dose: 7.5 mg/kg/injection, schedule: Q04DX003 (ip), vehicle: saline) was 150 % of control and 471 % of control, the T/C (dose: 15.0 mg/kg/injection, schedule: Q04DX003 (ip), vehicle: saline) was 173 % of control and 308 % of control and the T/C (dose: 30.0 mg/kg/injection, schedule: Q04DX003 (ip), vehicle: saline) was 150 % of control and 273 % of control and 471 % of control. For the same molecule, the T/C (dose: 60.0 mg/kg/injection, schedule: Q04DX003 (ip), vehicle: saline) was 193 % of control and 335 % of control and 471 % of control.
With CC[C@]1(O)C[C@H]2CN(CCc3c([nH]c4ccccc34)[C@@](C(=O)OC)(c3cc4c(cc3OC)N(C=O)[C@H]3[C@@](O)(C(=O)OC)[C@H](OC(C)=O)[C@]5(CC)C=CCN6CC[C@]43[C@@H]65)C2)C1 the T/C (dose: 0.13 mg/kg/injection, schedule: Q04DX003 (ip), vehicle: saline) was 99 % of control and 110 % of control, the T/C (dose: 0.25 mg/kg/injection, schedule: Q04DX003 (ip), vehicle: saline) was 101 % of control and 110 % of control and the T/C (dose: 0.5 mg/kg/injection, schedule: Q04DX003 (ip), vehicle: saline) was 97 % of control and 102 % of control. The T/C (dose: 1.0 mg/kg/injection, schedule: Q04DX003 (ip), vehicle: saline) was 106 % of control and 121 % of control and the T/C (dose: 2.0 mg/kg/injection, schedule: Q04DX003 (ip), vehicle: saline) was 122 % of control.
For COc1cc(NCc2ccc3nc(N)nc(N)c3c2C)cc(OC)c1OC, the T/C (dose: 3.75 mg/kg/injection, schedule: Q01DX009 (ip), vehicle: Klucel (hydroxypropylcellulose) (HPC)) was 98 % of control, the T/C (dose: 7.5 mg/kg/injection, schedule: Q01DX009 (ip), vehicle: Klucel (hydroxypropylcellulose) (HPC)) was 110 % of control and the T/C (dose: 15.0 mg/kg/injection, schedule: Q01DX009 (ip), vehicle: Klucel (hydroxypropylcellulose) (HPC)) was 115 % of control.
In the case of O=C(O)CCCc1ccc(N(CCCl)CCCl)cc1, the T/C (dose: 1.25 mg/kg/injection, schedule: Q04DX003 (ip), vehicle: saline with Tween-80) is reported as 106 % of control, the T/C (dose: 2.0 mg/kg/injection, schedule: Q04DX003 (ip), vehicle: saline with Tween-80) is reported as 102 % of control and the T/C (dose: 2.5 mg/kg/injection, schedule: Q04DX003 (ip), vehicle: saline with Tween-80) is reported as 105 % of control. For the same molecule, the T/C (dose: 4.0 mg/kg/injection, schedule: Q04DX003 (ip), vehicle: saline with Tween-80) was 102 % of control, the T/C (dose: 5.0 mg/kg/injection, schedule: Q04DX003 (ip), vehicle: saline with Tween-80) was 105 % of control and the T/C (dose: 8.0 mg/kg/injection, schedule: Q04DX003 (ip), vehicle: saline with Tween-80) was 122 % of control. For the same molecule, the T/C (dose: 16.0 mg/kg/injection, schedule: Q04DX003 (ip), vehicle: saline with Tween-80) was 173 % of control, the T/C (dose: 20.0 mg/kg/injection, schedule: Q04DX003 (ip), vehicle: saline with Tween-80) was 260 % of control and the T/C (dose: 32.0 mg/kg/injection, schedule: Q04DX003 (ip), vehicle: saline with Tween-80) was 189 % of control.
With COc1cc([C@@H]2c3cc4c(cc3[C@@H](OC3OC5CO[C@@H](c6cccs6)OC5C(O)C3O)[C@H]3COC(=O)[C@H]23)OCO4)cc(OC)c1O (stereo partly drawn) the T/C (dose: 5.0 mg/kg/injection, schedule: Q04DX003 (ip), vehicle: saline) was 185 % of control, the T/C (dose: 10.0 mg/kg/injection, schedule: Q04DX003 (ip), vehicle: saline) was 151 % of control and 207 % of control and the T/C (dose: 20.0 mg/kg/injection, schedule: Q04DX003 (ip), vehicle: saline) was 264 % of control and 301 % of control. For the same molecule, the T/C (dose: 40.0 mg/kg/injection, schedule: Q04DX003 (ip), vehicle: saline) was 269 % of control and 355 % of control, the T/C (dose: 80.0 mg/kg/injection, schedule: Q04DX003 (ip), vehicle: saline) was 337 % of control and 355 % of control and the T/C (dose: 160.0 mg/kg/injection, schedule: Q04DX003 (ip), vehicle: saline) was 337 % of control.
